Consider 17 molecules from ChEMBL document CHEMBL3045465, “Development of Selective Ligands for Benzodiazepine Receptor Subtypes by Manipulating the Substituents at Positions 3- and 7- of Optically Active BzR Ligands” (Med Chem Res, 2004).

Where only a bound is given, the exact number is not on record here.

The target in test [1] is T1, GABA-A receptor; alpha-1/beta-3/gamma-2 (Homo sapiens, UniProt P14867+P18507+P28472).
T1 sequence (P14867 whole entry): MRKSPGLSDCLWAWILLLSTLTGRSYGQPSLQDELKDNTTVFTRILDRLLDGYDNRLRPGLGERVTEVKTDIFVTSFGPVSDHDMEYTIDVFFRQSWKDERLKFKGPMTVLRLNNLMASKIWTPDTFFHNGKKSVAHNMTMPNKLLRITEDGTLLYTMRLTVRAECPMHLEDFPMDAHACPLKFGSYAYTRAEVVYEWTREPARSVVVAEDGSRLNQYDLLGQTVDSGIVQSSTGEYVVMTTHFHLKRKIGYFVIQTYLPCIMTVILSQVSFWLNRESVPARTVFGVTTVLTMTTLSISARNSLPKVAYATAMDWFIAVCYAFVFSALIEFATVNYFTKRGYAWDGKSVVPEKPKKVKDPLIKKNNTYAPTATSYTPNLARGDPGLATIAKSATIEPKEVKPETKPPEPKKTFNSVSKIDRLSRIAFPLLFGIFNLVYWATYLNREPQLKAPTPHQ
T1 sequence (P18507 whole entry): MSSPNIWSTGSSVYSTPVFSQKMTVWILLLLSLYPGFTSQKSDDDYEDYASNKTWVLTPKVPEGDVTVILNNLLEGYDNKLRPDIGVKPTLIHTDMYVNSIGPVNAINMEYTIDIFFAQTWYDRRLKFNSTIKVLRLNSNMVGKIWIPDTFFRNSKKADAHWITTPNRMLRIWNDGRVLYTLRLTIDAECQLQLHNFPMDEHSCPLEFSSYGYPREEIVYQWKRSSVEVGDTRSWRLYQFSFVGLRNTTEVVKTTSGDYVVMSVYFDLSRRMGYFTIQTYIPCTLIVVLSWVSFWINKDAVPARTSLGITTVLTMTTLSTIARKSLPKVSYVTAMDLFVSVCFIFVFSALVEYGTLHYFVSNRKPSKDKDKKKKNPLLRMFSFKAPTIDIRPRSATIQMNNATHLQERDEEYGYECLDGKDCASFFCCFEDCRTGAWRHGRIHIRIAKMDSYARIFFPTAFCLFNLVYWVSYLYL
T1 sequence (P28472 whole entry): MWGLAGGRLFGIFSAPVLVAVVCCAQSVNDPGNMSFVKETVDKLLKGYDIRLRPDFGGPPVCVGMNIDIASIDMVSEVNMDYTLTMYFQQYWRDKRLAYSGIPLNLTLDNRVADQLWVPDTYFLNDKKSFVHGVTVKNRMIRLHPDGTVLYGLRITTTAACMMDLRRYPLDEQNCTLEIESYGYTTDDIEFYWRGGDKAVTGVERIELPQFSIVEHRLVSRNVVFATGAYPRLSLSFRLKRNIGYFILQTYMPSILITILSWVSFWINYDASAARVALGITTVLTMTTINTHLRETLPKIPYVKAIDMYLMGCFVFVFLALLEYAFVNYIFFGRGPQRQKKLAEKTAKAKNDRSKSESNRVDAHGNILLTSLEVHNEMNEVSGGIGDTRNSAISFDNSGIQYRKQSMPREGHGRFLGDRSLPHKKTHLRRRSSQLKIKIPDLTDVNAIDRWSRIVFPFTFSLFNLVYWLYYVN
Briefly: Displacement of [3H]-Ro 15-1788 from Homo sapiens (human) recombinant GABAA alpha1beta3gamma2 receptor expressed in Ltk- cells after 1 hr by liquid scintillation counting. Type of test: cell-based. In general terms: In a radioligand displacement assay an active substance lowers the binding of a labelled ligand.

The target in test [2] is GABA-A receptor; alpha-6/beta-3/gamma-2 (Homo sapiens, UniProt P18507+P28472+Q16445). Briefly: Displacement of [3H]-Ro 15-4513 from Homo sapiens (human) recombinant GABAA alpha6beta3gamma2 receptor expressed in Ltk- cells after 1 hr by liquid scintillation counting. Type of test: cell-based.
GABA-A receptor; alpha-6/beta-3/gamma-2, sequence (Q16445 whole entry, one chain of several): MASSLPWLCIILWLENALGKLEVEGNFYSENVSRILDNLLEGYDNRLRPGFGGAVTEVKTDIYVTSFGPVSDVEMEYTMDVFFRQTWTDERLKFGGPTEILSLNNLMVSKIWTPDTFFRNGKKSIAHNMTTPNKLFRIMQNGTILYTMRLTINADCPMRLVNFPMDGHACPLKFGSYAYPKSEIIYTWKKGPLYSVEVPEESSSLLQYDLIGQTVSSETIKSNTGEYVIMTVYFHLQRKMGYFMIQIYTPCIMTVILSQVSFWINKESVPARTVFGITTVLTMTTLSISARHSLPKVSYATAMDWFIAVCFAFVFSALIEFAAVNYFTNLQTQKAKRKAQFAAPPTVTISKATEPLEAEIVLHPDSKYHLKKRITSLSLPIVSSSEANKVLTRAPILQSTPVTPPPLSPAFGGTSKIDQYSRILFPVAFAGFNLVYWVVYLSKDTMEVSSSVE
The target in test [3] is T2, GABA-A receptor; alpha-2/beta-3/gamma-2 (Homo sapiens, UniProt P18507+P28472+P47869).
T2 sequence (P18507 whole entry): T1 sequence (P18507 whole entry)
T2 sequence (P28472 whole entry): T1 sequence (P28472 whole entry)
T2 sequence (P47869 whole entry): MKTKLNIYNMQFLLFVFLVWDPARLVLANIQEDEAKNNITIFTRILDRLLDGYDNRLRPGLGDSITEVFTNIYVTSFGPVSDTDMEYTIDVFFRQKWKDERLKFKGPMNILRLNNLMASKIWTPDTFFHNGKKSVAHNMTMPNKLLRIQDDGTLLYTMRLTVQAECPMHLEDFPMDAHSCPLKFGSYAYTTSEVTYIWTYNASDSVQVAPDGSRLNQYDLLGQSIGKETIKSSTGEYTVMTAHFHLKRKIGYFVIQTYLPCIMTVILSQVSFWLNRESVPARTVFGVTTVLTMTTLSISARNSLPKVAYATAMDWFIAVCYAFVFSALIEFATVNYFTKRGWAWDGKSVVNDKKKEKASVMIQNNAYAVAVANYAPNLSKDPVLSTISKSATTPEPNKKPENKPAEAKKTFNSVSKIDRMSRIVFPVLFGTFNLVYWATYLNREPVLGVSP
Briefly: Displacement of [3H]-Ro 15-1788 from Homo sapiens (human) recombinant GABAA alpha2beta3gamma2 receptor expressed in Ltk- cells after 1 hr by liquid scintillation counting. Type of test: cell-based.

In test [4] the target is GABA A receptor alpha-4/beta-3/gamma-2 (Homo sapiens, UniProt P18507+P28472+P48169). The test can be described thus: Displacement of [3H]-Ro 15-4513 from Homo sapiens (human) recombinant GABAA alpha4beta3gamma2 receptor expressed in Ltk- cells after 1 hr by liquid scintillation counting. Type of test: cell-based.
GABA A receptor alpha-4/beta-3/gamma-2, sequence (P48169 whole entry, one chain of several): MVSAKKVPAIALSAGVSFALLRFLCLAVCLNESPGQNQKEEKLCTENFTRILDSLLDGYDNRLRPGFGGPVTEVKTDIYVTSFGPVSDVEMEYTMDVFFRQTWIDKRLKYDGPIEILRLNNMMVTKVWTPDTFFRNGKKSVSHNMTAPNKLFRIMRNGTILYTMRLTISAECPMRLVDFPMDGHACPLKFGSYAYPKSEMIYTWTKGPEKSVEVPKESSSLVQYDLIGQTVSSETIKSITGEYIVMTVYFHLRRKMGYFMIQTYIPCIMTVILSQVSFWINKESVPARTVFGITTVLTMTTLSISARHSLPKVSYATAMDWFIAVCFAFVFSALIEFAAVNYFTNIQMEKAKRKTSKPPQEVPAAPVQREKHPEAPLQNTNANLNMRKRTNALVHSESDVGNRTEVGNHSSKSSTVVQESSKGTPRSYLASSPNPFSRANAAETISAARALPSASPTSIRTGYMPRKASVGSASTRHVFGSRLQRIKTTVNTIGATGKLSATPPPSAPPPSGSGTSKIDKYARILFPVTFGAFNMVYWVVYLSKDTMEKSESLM
Test [5] addresses T3, GABA-A receptor; alpha-3/beta-3/gamma-2 (Homo sapiens, UniProt P18507+P28472+P34903).
T3 sequence (P18507 whole entry): T1 sequence (P18507 whole entry)
T3 sequence (P28472 whole entry): T1 sequence (P28472 whole entry)
T3 sequence (P34903 whole entry): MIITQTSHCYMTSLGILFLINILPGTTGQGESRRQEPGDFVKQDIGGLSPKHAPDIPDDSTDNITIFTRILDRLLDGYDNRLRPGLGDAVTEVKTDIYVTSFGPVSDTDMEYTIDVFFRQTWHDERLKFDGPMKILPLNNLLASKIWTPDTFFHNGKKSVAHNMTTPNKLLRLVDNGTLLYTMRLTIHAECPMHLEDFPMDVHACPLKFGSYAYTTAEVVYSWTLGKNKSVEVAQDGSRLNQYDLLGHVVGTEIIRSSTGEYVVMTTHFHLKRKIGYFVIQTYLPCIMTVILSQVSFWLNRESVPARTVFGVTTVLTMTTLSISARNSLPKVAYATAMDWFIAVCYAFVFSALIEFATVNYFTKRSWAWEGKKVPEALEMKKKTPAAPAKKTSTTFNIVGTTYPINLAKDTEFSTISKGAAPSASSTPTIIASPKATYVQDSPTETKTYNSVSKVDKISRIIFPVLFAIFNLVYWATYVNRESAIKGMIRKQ
Briefly: Displacement of [3H]-Ro 15-1788 from Homo sapiens (human) recombinant GABAA alpha3beta3gamma2 receptor expressed in Ltk- cells after 1 hr by liquid scintillation counting. It is filed as cell-based.

In test [6] the target is T4, GABA-A receptor; alpha-5/beta-3/gamma-2 (Homo sapiens, UniProt P18507+P28472+P31644).
T4 sequence (P18507 whole entry): T1 sequence (P18507 whole entry)
T4 sequence (P28472 whole entry): T1 sequence (P28472 whole entry)
T4 sequence (P31644 whole entry): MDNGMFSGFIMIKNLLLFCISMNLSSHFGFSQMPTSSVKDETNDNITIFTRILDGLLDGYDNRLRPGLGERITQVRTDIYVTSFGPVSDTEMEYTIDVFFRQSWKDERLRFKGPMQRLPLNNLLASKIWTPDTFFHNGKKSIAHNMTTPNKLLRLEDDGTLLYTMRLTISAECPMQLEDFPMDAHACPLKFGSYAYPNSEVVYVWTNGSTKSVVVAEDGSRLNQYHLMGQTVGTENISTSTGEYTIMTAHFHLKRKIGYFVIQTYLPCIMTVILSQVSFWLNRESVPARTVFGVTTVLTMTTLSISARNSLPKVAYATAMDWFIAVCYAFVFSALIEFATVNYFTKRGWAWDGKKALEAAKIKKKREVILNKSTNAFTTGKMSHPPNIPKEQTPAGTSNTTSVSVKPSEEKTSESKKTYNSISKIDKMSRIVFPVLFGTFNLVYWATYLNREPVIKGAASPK
The test can be described thus: Displacement of [3H]-Ro 15-1788 from Homo sapiens (human) recombinant GABAA alpha5beta3gamma2 receptor expressed in Ltk- cells after 1 hr by liquid scintillation counting. Type of test: cell-based.

The species entered for a further test is Homo sapiens. The test can be described thus: Selectivity ratio of Ki for Homo sapiens (human) recombinant GABAA alpha1beta3gamma2 receptor to Ki for Homo sapiens (human) recombinant GABAA alpha5beta3gamma2 receptor.

With `C[Si](C)(C)C#Cc1ccc2c(c1)C(=O)N1CCC[C@H]1c1c(C(=O)OCC(F)(F)F)ncn1-2`, the Ki in test [1] is above 333 nM; in test [2] it was above 333 nM; in test [3] it was above 333 nM; in test [4], above 333 nM; in test [5], above 333 nM; in test [6], 137 nM.

As for `CC(C)(C)OC(=O)c1ncn2c1[C@@H]1CCCN1C(=O)c1cc(C#C[Si](C)(C)C)ccc1-2`, the Ki in test [1] was above 333 nM; in test [2], above 333 nM; in test [3], above 333 nM; in test [4], 175 nM; in test [5], above 333 nM; in test [6], 103 nM.

As to `C#Cc1ccc2c(c1)C(=O)N1CCC[C@H]1c1c(C(=O)OCC(F)(F)F)ncn1-2`, the Ki in test [1] amounted to 299 nM; in test [2], 320 nM; in test [3], 172 nM; in test [4], 345 nM; in test [5], 169 nM; in test [6], 8.3 nM. Besides, the Ratio Ki in the test filed under Homo sapiens was 36.

Turning to `O=C(OCC(F)(F)F)c1ncn2c1[C@@H]1CCCN1C(=O)c1cc(Br)ccc1-2`, the Ki is above 333 nM in test [1]; above 333 nM in test [2]; above 333 nM in test [3]; 291 nM in test [4]; 245 nM in test [5]; 57 nM in test [6].

Regarding `CCOC(=O)c1ncn2c1[C@@H]1CCCN1C(=O)c1cc(OC)ccc1-2`, the Ratio Ki in the test listed under Homo sapiens was 108.

Take `C=Cc1ccc2c(c1)C(=O)N1CCC[C@H]1c1c(C(=O)OCC(F)(F)F)ncn1-2`: the Ki in test [1] turned out to be 94 nM; in test [2], 292 nM; in test [3] it was 55 nM; in test [4] it was 175 nM; in test [5], 65 nM; in test [6] it was 6.9 nM. Also, the Ratio Ki in the test filed under Homo sapiens worked out at 13.6.

Turning to `CC(C)(C)OC(=O)c1ncn2c1[C@@H]1CCCN1C(=O)c1cc(-c3ccco3)ccc1-2`, the Ki in test [1] was found to be 1.8 nM; in test [2], 46 nM; in test [3], 16.2 nM; in test [4], 11.6 nM; in test [5], 15.6 nM; in test [6], 1.7 nM. Also, the Ratio Ki in the test filed under Homo sapiens turned out to be 1.1.

In the case of `C=Cc1ccc2c(c1)C(=O)N1CCC[C@H]1c1c(C(=O)OC(C)(C)C)ncn1-2`, the Ki worked out at 50 nM in test [1]; 58 nM in test [2]; 35 nM in test [3]; 26 nM in test [4]; 26 nM in test [5]; 2.4 nM in test [6]. The Ratio Ki in the test listed under Homo sapiens was 20.8.

`O=C(OCC(F)(F)F)c1ncn2c1[C@@H]1CCCN1C(=O)c1ccccc1-2`: the Ki is 34 nM in test [1]; above 333 nM in test [2]; 34 nM in test [3]; above 333 nM in test [4]; 13 nM in test [5]; 4.3 nM in test [6]. Also, the Ratio Ki in the test listed under Homo sapiens was 7.9.

On to `CC(C)(C)OC(=O)c1ncn2c1[C@@H]1CCCN1C(=O)c1cc(-c3ccccc3)ccc1-2`, for which the Ki in test [1] is 28 nM; in test [2] it was above 333 nM; in test [3] it was 129 nM; in test [4] it was 114 nM; in test [5], 59 nM; in test [6], 13 nM. In addition, the Ratio Ki in the test filed under Homo sapiens came out at 2.2.

Regarding `O=C(OCC(F)(F)F)c1ncn2c1[C@@H]1CCCN1C(=O)c1cc(-c3ccccc3)ccc1-2`, the Ki was 141 nM in test [1]; above 333 nM in test [2]; above 333 nM in test [3]; above 333 nM in test [4]; above 333 nM in test [5]; above 333 nM in test [6].

With `C#Cc1ccc2c(c1)C(=O)N1CCC[C@H]1c1c(C(=O)OC(C)(C)C)ncn1-2`, the Ki in test [1] was above 333 nM; in test [2] it was 308 nM; in test [3], above 333 nM; in test [4] it was 213 nM; in test [5], above 333 nM; in test [6], 40 nM.

Consider `CC(C)(C)OC(=O)c1ncn2c1[C@@H]1CCCN1C(=O)c1cc(-c3cccs3)ccc1-2`, for which the Ki in test [1] is 16 nM; in test [2] it was above 333 nM; in test [3], 120 nM; in test [4] it was 119 nM; in test [5], 123 nM; in test [6], 12 nM. For the same molecule, the Ratio Ki in the test filed under Homo sapiens amounted to 1.3.

As to `CCOC(=O)c1ncn2c1[C@@H]1CCCN1C(=O)c1cc(Br)ccc1-2`, the Ratio Ki in the test filed under Homo sapiens is 49.

For the molecule `C#Cc1ccc2c(c1)C(=O)N1CCC[C@H]1c1c(C(=O)OCC)ncn1-2`, in the test filed under Homo sapiens, the Ratio Ki turned out to be 45.

On to `O=C(OCC(F)(F)F)c1ncn2c1[C@@H]1CCCN1C(=O)c1cc(-c3ccco3)ccc1-2`, for which the Ki came to 7.1 nM in test [1]; 251 nM in test [2]; 55 nM in test [3]; 51 nM in test [4]; 52 nM in test [5]; 10 nM in test [6]. Further, the Ratio Ki in the test listed under Homo sapiens was determined as 0.71.

With `CCOC(=O)c1ncn2c1[C@@H]1CCCN1C(=O)c1cc(C#C[Si](C)(C)C)ccc1-2`, in the test filed under Homo sapiens, the Ratio Ki was 50.

One may read the Ki as a dissociation constant, usually derived from enzyme kinetics or from competition with a known ligand.
